PubChem BioAssay (NCI)
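GI50 = concentration required for 50% inhibition of growth. Definition used: TGI = concentration required for complete inhibition of growth.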

Legend:
Experiment in all cases: DTP human tumour cell line panel, 384-well format
M14 melanoma = system: M14 melanoma
MDA-MB-468 breast = system: MDA-MB-468 breast
MOLT-4 leukemia = system: MOLT-4 leukemia
MDA-MB-231 breast = system: MDA-MB-231 breast
DU-145 prostate = system: DU-145 prostate
LOX IMVI melanoma = system: LOX IMVI melanoma
SNB-19 CNS = system: SNB-19 CNS
NCI-H522 lung = system: NCI-H522 lung
SF-295 CNS = system: SF-295 CNS
RPMI-8226 leukemia = system: RPMI-8226 leukemia
NCI-H226 lung = system: NCI-H226 lung
K-562 leukemia = system: K-562 leukemia
UACC-257 melanoma = system: UACC-257 melanoma
BT-549 breast = system: BT-549 breast
U251 glioblastoma = system: U251 glioblastoma
OVCAR-4 ovarian = system: OVCAR-4 ovarian
SK-MEL-5 melanoma = system: SK-MEL-5 melanoma
KM12 colon = system: KM12 colon
HS 578T breast = system: HS 578T breast
UO-31 renal = system: UO-31 renal
NCI-H460 NSCLC = system: NCI-H460 NSCLC
EKVX NSCLC = system: EKVX NSCLC
CCRF-CEM leukemia = system: CCRF-CEM leukemia
T-47D breast = system: T-47D breast
UACC-62 melanoma = system: UACC-62 melanoma
HL-60(TB) leukemia = system: HL-60(TB) leukemia
SR leukemia = system: SR leukemia
SN12C renal = system: SN12C renal
PC-3 prostate = system: PC-3 prostate
SF-268 CNS = system: SF-268 CNS

In the case of `NC1(Cc2ccc(Cl)cc2)CCN(c2ncnc3[nH]ccc23)CC1`, the TGI (M14 melanoma) is reported as 16.1 µM, the GI50 (MDA-MB-468 breast) is reported as 1.61 µM and the TGI (MDA-MB-468 breast) is reported as 6.55 µM. The GI50 (MOLT-4 leukemia) was 1.09 µM, the TGI (MOLT-4 leukemia) was 2.6 µM and the GI50 (MDA-MB-231 breast) was 4.76 µM. For the same compound, the TGI (MDA-MB-231 breast) was 16.4 µM, the GI50 (DU-145 prostate) was 8.33 µM and the TGI (DU-145 prostate) was 23 µM. The GI50 (LOX IMVI melanoma) was 4.07 µM, the TGI (LOX IMVI melanoma) was 13.7 µM and the GI50 (SNB-19 CNS) was 3.28 µM. For the same compound, the TGI (SNB-19 CNS) was 13.5 µM, the GI50 (NCI-H522 lung) was 5.41 µM and the TGI (NCI-H522 lung) was 19.5 µM. The GI50 (SF-295 CNS) was 2.74 µM, the TGI (SF-295 CNS) was 14.8 µM and the GI50 (RPMI-8226 leukemia) was 1.36 µM. The TGI (RPMI-8226 leukemia) was 4.48 µM, the GI50 (NCI-H226 lung) was 5.53 µM and the TGI (NCI-H226 lung) was 18.1 µM. It also gave a GI50 (K-562 leukemia) of 3.4 µM, a TGI (K-562 leukemia) of 15.7 µM and a GI50 (UACC-257 melanoma) of 1.93 µM. It also gave a TGI (UACC-257 melanoma) of 3.96 µM, a GI50 (BT-549 breast) of 1.63 µM and a TGI (BT-549 breast) of 5.8 µM. It also gave a GI50 (U251 glioblastoma) of 4.4 µM, a TGI (U251 glioblastoma) of 15.7 µM and a GI50 (OVCAR-4 ovarian) of 16.4 µM. For the same compound, the TGI (OVCAR-4 ovarian) was 43.9 µM, the GI50 (SK-MEL-5 melanoma) was 3.17 µM and the TGI (SK-MEL-5 melanoma) was 12.8 µM. It also gave a GI50 (KM12 colon) of 2.25 µM, a TGI (KM12 colon) of 11 µM and a GI50 (HS 578T breast) of 1.21 µM. It also gave a TGI (HS 578T breast) of 6.14 µM, a GI50 (UO-31 renal) of 4.28 µM and a TGI (UO-31 renal) of 17.6 µM. It also gave a GI50 (NCI-H460 NSCLC) of 1.76 µM, a TGI (NCI-H460 NSCLC) of 9.36 µM and a GI50 (EKVX NSCLC) of 4.51 µM. The TGI (EKVX NSCLC) was 16.5 µM, the GI50 (CCRF-CEM leukemia) was 2.31 µM and the TGI (CCRF-CEM leukemia) was 10.8 µM. For the same compound, the GI50 (T-47D breast) was 2.35 µM, the TGI (T-47D breast) was 12.7 µM and the GI50 (UACC-62 melanoma) was 4.76 µM. The TGI (UACC-62 melanoma) was 16.4 µM, the GI50 (HL-60(TB) leukemia) was 3.01 µM and the TGI (HL-60(TB) leukemia) was 9.25 µM. For the same compound, the GI50 (SR leukemia) was 2.07 µM, the TGI (SR leukemia) was 4 µM and the GI50 (SN12C renal) was 3.46 µM. The TGI (SN12C renal) was 14.9 µM, the GI50 (PC-3 prostate) was 3.11 µM and the TGI (PC-3 prostate) was 15.8 µM. It also gave a GI50 (SF-268 CNS) of 5.54 µM and a TGI (SF-268 CNS) of 18.2 µM.
